Test results from the NIST ThermoML archive (doi:10.1021/je100362p).
Several values for one entry are separate records, joined by “and”; a condition that tells them apart may be missing. Equal entries are not always repeated. Numbers after ± are expanded uncertainties.

Columns and labels:
[1] = refractive index (Na D-line) (dimensionless); conditions: 101.33 kPa, Liquid, Standard Abbe refractometry
[2] = 101 kPa, Liquid; for speed of sound: Sing-around technique in a fixed-path interferometer
[3] = refractive index (Na D-line) (dimensionless); xn = mol fraction of the nth substance listed; conditions: 101 kPa, Liquid, Standard Abbe refractometry, x2 = 0
[4] = xn = mol fraction of the nth substance listed; conditions: 101 kPa, Liquid, x2 = 0; for speed of sound: Sing-around technique in a fixed-path interferometer

refractive index ([1]; 298.15 K) | refractive index ([1]; 303.15 K) | refractive index ([1]; 308.15 K) | mass density ([2]; 298.15 K) [kg/m3] | speed of sound ([2]; 298.15 K) [m/s] | mass density ([2]; 303.15 K) [kg/m3] | speed of sound ([2]; 303.15 K) [m/s] | mass density ([2]; 308.15 K) [kg/m3] | speed of sound ([2]; 308.15 K) [m/s] | SMILES | refractive index ([3]; 298.15 K) | refractive index ([3]; 303.15 K) | refractive index ([3]; 308.15 K) | speed of sound ([4]; 298.15 K) [m/s] | mass density ([4]; 298.15 K) [kg/m3] | speed of sound ([4]; 303.15 K) [m/s] | mass density ([4]; 303.15 K) [kg/m3] | speed of sound ([4]; 308.15 K) [m/s] | mass density ([4]; 308.15 K) [kg/m3]
1.538 ± 0.0007 | 1.535 ± 0.0007 | 1.532 ± 0.0007 | 1030.05 ± 0.25 | 1480.9 ± 1 | 1026.09 ± 0.24 | 1465.2 ± 1 | 1022.12 ± 0.23 | 1449.6 ± 1 | Cc1cccc(O)c1 [3-methylphenol] |  |  |  |  |  |  |  |  | 
1.51495 ± 0.00041 | 1.51395 ± 0.00054 | 1.51095 ± 0.0007 | 989.145 ± 0.25 | 1406.9 ± 1.1 | 984.433 ± 0.26 | 1386.8 ± 1.1 | 979.712 ± 0.27 | 1366.5 ± 1.1 | COc1ccccc1 [anisole] |  |  |  |  |  |  |  |  | 
 |  |  |  |  |  |  |  |  | CCCCCCCCCCO [decan-1-ol] + COc1ccccc1 | 1.43456 ± 0.00054 | 1.43256 ± 0.00054 | 1.4305 ± 0.00055 | 1379.4 ± 1.1 | 826.526 ± 0.55 | 1362.3 ± 1.1 | 823.101 ± 0.56 | 1345.6 ± 1.1 | 819.671 ± 0.57
1.537 ± 0.00072 | 1.534 ± 0.00072 | 1.531 ± 0.00072 | 1030.14 ± 0.49 | 1486.4 ± 1.4 | 1026.28 ± 0.48 | 1470.7 ± 1.4 | 1022.38 ± 0.47 | 1455 ± 1.4 | Cc1ccc(O)cc1 [4-methylphenol] |  |  |  |  |  |  |  |  | 
 |  |  |  |  |  |  |  |  | CCCCCCCCCCO [decan-1-ol] + Cc1ccc(O)cc1 | 1.43456 ± 0.00054 | 1.43256 ± 0.00054 | 1.4305 ± 0.00055 | 1379.4 ± 1.1 | 826.526 ± 0.55 | 1362.3 ± 1.1 | 823.101 ± 0.56 | 1345.6 ± 1.1 | 819.671 ± 0.57
 |  |  |  |  |  |  |  |  | CCCCCCCCCCO [decan-1-ol] + Cc1ccccc1O | 1.43456 ± 0.00052 | 1.43266 ± 0.00054 | 1.4305 ± 0.00056 | 1379.4 ± 1.1 | 826.526 ± 0.55 | 1362.3 ± 1.1 | 823.101 ± 0.56 | 1345.6 ± 1.1 | 819.671 ± 0.57
 |  |  |  |  |  |  |  |  | CCCCCCCCCCO [decan-1-ol] + Cc1cccc(O)c1 | 1.43456 ± 0.00054 | 1.43256 ± 0.00054 | 1.4305 ± 0.00055 | 1379.4 ± 1.1 | 826.526 ± 0.55 | 1362.3 ± 1.1 | 823.101 ± 0.56 | 1345.6 ± 1.1 | 819.671 ± 0.57

SMILES | refractive index ([1]; 298.15 K) | refractive index ([1]; 303.15 K) | refractive index ([1]; 308.15 K) | mass density ([2]; 298.15 K) [kg/m3] | speed of sound ([2]; 298.15 K) [m/s] | mass density ([2]; 303.15 K) [kg/m3] | speed of sound ([2]; 303.15 K) [m/s] | mass density ([2]; 308.15 K) [kg/m3] | speed of sound ([2]; 308.15 K) [m/s] | refractive index ([3]; 298.15 K) | refractive index ([3]; 303.15 K) | refractive index ([3]; 308.15 K) | speed of sound ([4]; 298.15 K) [m/s] | mass density ([4]; 298.15 K) [kg/m3] | speed of sound ([4]; 303.15 K) [m/s] | mass density ([4]; 303.15 K) [kg/m3] | speed of sound ([4]; 308.15 K) [m/s] | mass density ([4]; 308.15 K) [kg/m3]
CCCCCCCCCCO [decan-1-ol] | 1.43456 ± 0.00054 | 1.43256 ± 0.00054 and 1.43266 ± 0.00054 | 1.4305 ± 0.00055 | 826.526 ± 0.55 | 1379.4 ± 1.1 | 823.101 ± 0.56 | 1362.3 ± 1.1 | 819.671 ± 0.57 | 1345.6 ± 1.1 |  |  |  |  |  |  |  |  | 
Cc1ccccc1O [2-methylphenol] | 1.544 ± 0.0007 | 1.54099 ± 0.00078 | 1.53699 ± 0.00087 | 1042.32 ± 0.27 | 1504.6 ± 1.1 | 1036.94 ± 0.26 | 1487.4 ± 1.1 | 1031.55 ± 0.25 | 1470.3 ± 1 |  |  |  |  |  |  |  |  | 
